Results as given in paper PMC8152350, “High cytotoxicity of betulin towards fish and murine fibroblasts: Is betulin safe for nonneoplastic cells?” (BMC Veterinary Research, 2021).
Converted amounts (≈) assume the structure as drawn. Where two headings read alike, the source gives them in different places.

Assays:
[1] = tested on: human lung fibroblasts (WI 38); set-up: method as in PMID 12697374; details: WI 38, trypan blue exclusion, 72 h, cited from earlier work
[2] = tested on: veterinary pathogens, both bacterial and viral; experiment: Antimicrobial activity towards veterinary pathogens (data not shown)
G361 = tested on: G361; set-up: method as in PMID 12697374; details: G361 melanoma; read-out: IC50 of betulin; cited from earlier work
porcine chondrocytes = details: cited from earlier work
A375 (melanoma) = tested on: A375 (melanoma); set-up: method as in PMID 22627971, PMID 23379693; details: A375, 20 µM; cited from earlier work
[3] = tested on: human skin fibroblasts (WS1); set-up: method as in PMID 16787747; details: WS1, resazurin reduction test, 48 h, cited from earlier work
P388 (murine leukaemia) = tested on: P388 (murine leukaemia); set-up: method as in PMID 23595090; details: P388, MTT assay; cited from earlier work
SK-MEL-28 = tested on: SK-MEL-28; set-up: method as in PMID 12697374; details: SK-MEL-28 melanoma; read-out: IC50 of betulin; cited from earlier work
BF-2 cells [4] = experiment: LDH leakage assay (cellular membrane integrity), fish fibroblasts; format: cell-based, bluegill; details: BF-2, 24 h
Experimental: (§1) BF-2 (ATCC CCL-91) bluegill caudal trunk fibroblasts were grown in minimum essential medium (Eagle, EBSS) supplemented with 1 % nonessential amino acids (NEAAs), 10 % foetal bovine serum and 1 % antibiotic-antimycotic solution at 23 °C in a humidified atmosphere with 5 % CO2.
(§2) All experiments were repeated three times.
(§3) The LDH assay measures leakage of the stable cytosolic enzyme lactate dehydrogenase into the culture medium, which is an indicator of irreversible cell membrane damage and cell death.
(§4) The LDH assay was performed using a commercially available kit (TOX7) (Sigma-Aldrich, Poland) according to the manufacturer’s protocol. The full description of the test procedure was also reported previously. The results obtained are reported as the percentage of LDH leakage to the culture media in control (nontreated) cells.

[5] = MTT assay (mitochondrial activity), fish fibroblasts; format: cell-based, bluegill; details: bluegill, BF-2 caudal trunk fibroblasts, mean ± SD, n = 3
Experimental: as §1, §2

BF-2 cells [6] = experiment: as above; format: cell-based, bluegill; details: fish cells
Experimental: as §1, §2

[7] = tested on: murine fibroblasts (Balb 3T3 line); set-up: method as in PMID 23595090; details: Balb 3T3, incubation time not given; cited from earlier work
[8] = NRU assay (lysosomal membrane integrity), fish fibroblasts; format: cell-based, bluegill; details: bluegill, BF-2 caudal trunk fibroblasts, mean ± SD, n = 3
Experimental: as §1, §2
(§5) The NRU assay evaluates lysosomal membrane integrity. It measures neutral red dye accumulation within lysosomes of viable cells.
(§6) The NRU assay was performed using a commercially available kit (TOX4) (Sigma-Aldrich, Poland) according to the manufacturer’s protocol. The full description of the test procedure was also provided in a published article.

BF-2 cells [9] = experiment: as above; format: cell-based, bluegill; details: BF-2, regardless of the time of incubation
Experimental: as §1, §2, §5, §6

CCRF/CEM (leukaemia) = tested on: CCRF/CEM (leukaemia); set-up: method as in PMID 23595090; details: MTT assay; cited from earlier work
Bcap-37 (breast cancer) = tested on: Bcap-37 (breast cancer); set-up: method as in PMID 22627971, PMID 23379693; details: Bcap-37, 20 µM; cited from earlier work
B16-F1 (mouse melanoma) = tested on: B16-F1 (mouse melanoma); set-up: method as in PMID 16787747; details: read-out: IC50 of betulin; cited from earlier work
GOTO = tested on: GOTO; set-up: method as in PMID 12697374; details: GOTO neuroblastoma; read-out: IC50 of betulin; cited from earlier work
NIH/3T3 cells [10] = experiment: LDH leakage assay (cellular membrane integrity), murine fibroblasts; format: cell-based, mouse; details: NIH/3T3, 24 h
Experimental: as §2, §3, §4

[11] = tested on: SW707 (colorectal adenocarcinoma); set-up: method as in PMID 23595090; details: SW707, SRB assay; cited from earlier work
U937 = tested on: U937; set-up: method as in PMID 12697374; details: U937 leukaemia; read-out: IC50 of betulin; cited from earlier work
NIH/3T3 cells [12] = experiment: in vitro; format: cell-based, mouse; details: NIH/3T3, 72 h
Experimental: as §2
(§7) The sulforhodamine B colorimetric assay measures the cellular protein content, and the assay results are proportional to the number of cells.
(§8) The SRB assay was performed using a commercially available kit (TOX6) (Sigma-Aldrich, Poland) according to the manufacturer’s protocol. In this assay, SRB binds to protein components of trichloroacetic acid-fixed cells, and the protein-bound dye is extracted with Tris. The results obtained are presented as the percentage of the total cellular protein content in control (nontreated) cells.

in vitro = format: cell-based, mouse; details: mouse
Experimental: as §2, §7, §8

T47D (breast cancer) = tested on: T47D (breast cancer); set-up: method as in PMID 23595090; details: SRB assay; cited from earlier work
K562 = tested on: K562; set-up: method as in PMID 12697374; details: K562 leukaemia; read-out: IC50 of betulin; cited from earlier work
NB-1 = tested on: NB-1; set-up: method as in PMID 12697374; details: NB-1 neuroblastoma; read-out: IC50 of betulin; cited from earlier work

In the case of C=C(C)[C@@H]1CC[C@]2(CO)CC[C@]3(C)[C@H](CC[C@@H]4[C@@]5(C)CC[C@H](O)C(C)(C)[C@@H]5CC[C@]43C)[C@@H]12 [betulin, Betulin], the “IC50 of betulin, converted” value ([1]; conversion of µM value) is given as “ca. 6.75 µg/ml”, the IC50 ([1]; read-out: IC50 of betulin) is given as 15.2 µM and the “antimicrobial activity towards tested veterinary pathogens” value [2] is given as “did not confirm the antimicrobial activity”. The IC50 (G361) was 12.4 µM, the “betulin concentration causing considerable decrease in viability (MTT)” value (porcine chondrocytes) was 0.02 µg/mL and the “inhibitory activity of betulin” value (A375 (melanoma)) was 33.9%. The “IC50 of betulin, converted” value ([3]; conversion of µM value) was “ca. 1.6 µg/ml”, the IC50 ([3]; read-out: IC50 of betulin) was 3.58 µM and the IC50 of betulin (P388 (murine leukaemia)) was 5.5 µg/mL. The IC50 (SK-MEL-28) was 16.2 µM, the “betulin concentration inducing substantial LDH leakage” value (BF-2 cells [4]) was 7.8 µg/mL and the CC50 at 24 h ([5]; BF-2, 24 h, read-out: CC50 betulin MTT 24 h) was 3.39 ± 0.903 µg/mL (≈ 7.67 µM). For the same compound, the CC50 at 48 h ([5]; BF-2, 48 h, read-out: CC50 betulin MTT 48 h) was 2.75 ± 1.05 µg/mL (≈ 6.21 µM), the CC50 at 72 h ([5]; BF-2, 72 h, read-out: CC50 betulin MTT 72 h) was 3.02 ± 1.03 µg/mL (≈ 6.82 µM) and the “betulin concentration causing statistically significant decrease in viability (MTT)” value (BF-2 cells [6]; 24 h) was ≥ 1.95 µg/mL. For the same compound, the “lower betulin concentration causing considerable decrease in viability (MTT)” value (BF-2 cells [6]; starting at 48 h of incubation) was 0.976 µg/mL, the “IC50 of betulin (SRB)” value [7] was 47.3 µg/mL and the CC50 at 24 h ([8]; BF-2, 24 h, read-out: CC50 betulin NRU 24 h) was 27.6 ± 9.01 µg/mL (≈ 62.4 µM). For the same compound, the CC50 at 48 h ([8]; BF-2, 48 h, read-out: CC50 betulin NRU 48 h) was 16.5 ± 3.6 µg/mL (≈ 37.2 µM), the CC50 at 72 h ([8]; BF-2, 72 h, read-out: CC50 betulin NRU 72 h) was 14.5 ± 3.41 µg/mL (≈ 32.8 µM) and the “betulin concentration causing considerable decrease in viability (NRU)” value (BF-2 cells [9]) was “at least 15.625 µg/mL”. The IC50 of betulin (CCRF/CEM (leukaemia)) was 10.9 µg/mL, the “inhibitory activity of betulin” value (Bcap-37 (breast cancer)) was 53.2% and the IC50 (B16-F1 (mouse melanoma)) was 13.8 µM. For the same compound, the IC50 (GOTO) was 17.1 µM, the “betulin concentration inducing substantial LDH leakage” value (NIH/3T3 cells [10]) was 7.8 µg/mL and the IC50 of betulin [11] was 22.9 µg/mL. For the same compound, the IC50 (U937) was 14.4 µM, the “betulin concentration causing considerable decrease in total cellular protein content (SRB)” value (NIH/3T3 cells [12]) was ≥ 1.95 µg/mL and the CC50 (in vitro; NIH/3T3, 24 h, mean ± SD, n = 3, read-out: CC50 betulin SRB 24 h) was 10.9 ± 7.34 µg/mL (≈ 24.6 µM). For the same compound, the CC50 (in vitro; NIH/3T3, 48 h, mean ± SD, n = 3, read-out: CC50 betulin SRB 48 h) was 4.05 ± 1.24 µg/mL (≈ 9.15 µM), the CC50 (in vitro; NIH/3T3, 72 h, mean ± SD, n = 3, read-out: CC50 betulin SRB 72 h) was 3.76 ± 0.572 µg/mL (≈ 8.48 µM) and the CC50 (in vitro; NIH/3T3, depending on incubation time (24-72 h), read-out: CC50 of betulin in SRB assay, range over incubation times) was 3.76 to 10.9 µg/mL (≈ 8.48 to 24.6 µM). The IC50 of betulin (T47D (breast cancer)) was 32.4 µg/mL, the IC50 (K562) was 14.5 µM and the IC50 (NB-1) was 16.5 µM.
